The values that follow come from PubChem BioAssay AID1745844 (Carcinogenic Potency Database (CPDB), 2022).

The source made the active and inactive calls. How the calls were made is not given here.

For the data set, the system named is rodent lifetime carcinogenesis bioassay, tumor incidence TD50. In words: chronic cancer bioassays in animals – CPDB, compiled studies (AID 1745844).

Broadly, the TD50 is the dose at which the toxic effect under study appears in half of the subjects. For `Cc1cccc(OCC(O)CNC(C)(C)C)c1C` (stereo unspecified), the carcinogen call was “negative (inactive)” (mouse, strain B6C3F1, females, in feed, site: any site (literature study), lesion: several types, types named in the paper, dosed 82 weeks, study length 92 weeks); “negative (inactive)” (mouse, strain B6C3F1, females, in feed, site: liver, lesion: several types, types named in the paper, dosed 82 weeks, study length 92 weeks); “negative (inactive)” (mouse, strain B6C3F1, females, in feed, site: lung, lesion: several types, types named in the paper, dosed 82 weeks, study length 92 weeks); “negative (inactive)” (mouse, strain B6C3F1, males, in feed, site: liver, lesion: several types, types named in the paper, dosed 82 weeks, study length 92 weeks). The TD50 (mouse, strain B6C3F1, males, in feed, site: any site (literature study), lesion: several types, types named in the paper, dosed 82 weeks, study length 92 weeks) is 618 mg/kg/day (inactive) and the TD50 (mouse, strain B6C3F1, males, in feed, site: lung, lesion: several types, types named in the paper, dosed 82 weeks, study length 92 weeks) was 1730 mg/kg/day (inactive).
As for `CCCCCNN`, the TD50 (mouse, strain Swiss albino, females, in drinking water, site: blood vessels, lesion: angioma, dosed 94 weeks, study length 94 weeks) was 71.9 mg/kg/day; the TD50 (mouse, strain Swiss albino, females, in drinking water, site: blood vessels, lesion: angiosarcoma, dosed 94 weeks, study length 94 weeks) was determined as 82.2 mg/kg/day; the TD50 (mouse, strain Swiss albino, females, in drinking water, site: blood vessels, lesion: several types, types named in the paper, dosed 94 weeks, study length 94 weeks) is 35.5 mg/kg/day; the TD50 (mouse, strain Swiss albino, females, in drinking water, site: liver, lesion: several types, types named in the paper, dosed 94 weeks, study length 94 weeks) was determined as 223 mg/kg/day; the TD50 (mouse, strain Swiss albino, females, in drinking water, site: lung, lesion: adenocarcinoma, dosed 94 weeks, study length 94 weeks) is 18.7 mg/kg/day; the TD50 (mouse, strain Swiss albino, females, in drinking water, site: lung, lesion: adenoma, dosed 94 weeks, study length 94 weeks) came out at 7.95 mg/kg/day. The TD50 is 5.87 mg/kg/day (mouse, strain Swiss albino, females, in drinking water, site: lung, lesion: several types, types named in the paper, dosed 94 weeks, study length 94 weeks); 65.6 mg/kg/day (mouse, strain Swiss albino, males, in drinking water, site: blood vessels, lesion: several types, types named in the paper, dosed 94 weeks, study length 94 weeks); 271 mg/kg/day (mouse, strain Swiss albino, males, in drinking water, site: liver, lesion: several types, types named in the paper, dosed 94 weeks, study length 94 weeks); 30 mg/kg/day (mouse, strain Swiss albino, males, in drinking water, site: lung, lesion: adenoma, dosed 94 weeks, study length 94 weeks); 46.9 mg/kg/day (mouse, strain Swiss albino, males, in drinking water, site: lung, lesion: several types, types named in the paper, dosed 94 weeks, study length 94 weeks).
For the compound `COC(=O)C(c1ccccc1)C1CCCCN1N=O` (stereo unspecified), the carcinogen call (mouse, strain (C57BL/6 x BALB/c)F1, females, in drinking water, site: any site (literature study), lesion: several types, types named in the paper, dosed 73 weeks, study length 106 weeks) was “negative (inactive)”; the carcinogen call (mouse, strain (C57BL/6 x BALB/c)F1, females, in drinking water, site: liver, lesion: one or several types, types not named, dosed 73 weeks, study length 106 weeks) was “negative (inactive)”; the carcinogen call (mouse, strain (C57BL/6 x BALB/c)F1, females, in drinking water, site: lung, lesion: one or several types, types not named, dosed 73 weeks, study length 106 weeks) was “negative (inactive)”; the carcinogen call (mouse, strain (C57BL/6 x BALB/c)F1, males, in drinking water, site: any site (literature study), lesion: several types, types named in the paper, dosed 73 weeks, study length 106 weeks) was “negative (inactive)”; the carcinogen call (mouse, strain (C57BL/6 x BALB/c)F1, males, in drinking water, site: lung, lesion: one or several types, types not named, dosed 73 weeks, study length 106 weeks) is “negative (inactive)”.
In the case of `C=C(C)[C@H]1CC=C(C)C(=O)C1`, the carcinogen call is, setting by setting: (mouse, strain B6C3F1, females, by gavage, site: any site (literature study), lesion: several types, types named in the paper, dosed 103 weeks, study length 105 weeks) “negative (inactive)”; (mouse, strain B6C3F1, males, by gavage, site: any site (literature study), lesion: several types, types named in the paper, dosed 103 weeks, study length 105 weeks) “negative (inactive)”. Further, the TD50 (mouse, strain B6C3F1, males, by gavage, site: liver, lesion: hepatocellular adenoma + hepatocellular carcinoma + neoplastic nodule, dosed 103 weeks, study length 105 weeks) stood at 63800 mg/kg/day.
Take `CC(C)[N+](=O)[O-]`: the carcinogen call is, setting by setting: (rat, strain Sprague-Dawley, females, inhaled, site: any site (literature study), lesion: benign tumor, dosed 52 weeks, study length 52 weeks) “negative (inactive)”; (rat, strain Sprague-Dawley, females, inhaled, site: any site (literature study), lesion: benign tumor, dosed 52 weeks, study length 95 weeks) “negative (inactive)”; (rat, strain Sprague-Dawley, females, inhaled, site: any site (literature study), lesion: benign tumor, dosed 95 weeks, study length 95 weeks) “negative (inactive)”; (rat, strain Sprague-Dawley, females, inhaled, site: any site (literature study), lesion: malignant tumor, dosed 52 weeks, study length 52 weeks) “negative (inactive)”; (rat, strain Sprague-Dawley, females, inhaled, site: any site (literature study), lesion: malignant tumor, dosed 52 weeks, study length 95 weeks) “negative (inactive)”; (rat, strain Sprague-Dawley, females, inhaled, site: any site (literature study), lesion: malignant tumor, dosed 95 weeks, study length 95 weeks) “negative (inactive)”. For the same compound, the carcinogen call (rat, strain Sprague-Dawley, females, inhaled, site: liver, lesion: one or several types, types not named, dosed 52 weeks, study length 52 weeks) is “negative (inactive)”; the carcinogen call (rat, strain Sprague-Dawley, females, inhaled, site: liver, lesion: one or several types, types not named, dosed 52 weeks, study length 95 weeks) was “negative (inactive)”; the carcinogen call (rat, strain Sprague-Dawley, males, inhaled, site: any site (literature study), lesion: benign tumor, dosed 95 weeks, study length 95 weeks) was “negative (inactive)”; the carcinogen call (rat, strain Sprague-Dawley, males, inhaled, site: any site (literature study), lesion: malignant tumor, dosed 52 weeks, study length 52 weeks) was “negative (inactive)”; the carcinogen call (rat, strain Sprague-Dawley, males, inhaled, site: any site (literature study), lesion: malignant tumor, dosed 95 weeks, study length 95 weeks) was “negative (inactive)”; the carcinogen call (rat, strain Sprague-Dawley, males, inhaled, site: liver, lesion: angioma, dosed 52 weeks, study length 95 weeks) was “negative (inactive)”. In addition, the carcinogen call was “negative (inactive)” (rat, strain Sprague-Dawley, males, inhaled, site: liver, lesion: angioma, dosed 95 weeks, study length 95 weeks) and “negative (inactive)” (rat, strain Sprague-Dawley, males, inhaled, site: liver, lesion: one or several types, types not named, dosed 52 weeks, study length 52 weeks). Besides, the TD50 by setting is: (rat, strain Sprague-Dawley, females, inhaled, site: liver, lesion: one or several types, types not named, dosed 95 weeks, study length 95 weeks) 293 mg/kg/day (inactive); (rat, strain Sprague-Dawley, males, inhaled, site: any site (literature study), lesion: benign tumor, dosed 52 weeks, study length 52 weeks) 9.06 mg/kg/day (inactive); (rat, strain Sprague-Dawley, males, inhaled, site: any site (literature study), lesion: benign tumor, dosed 52 weeks, study length 95 weeks) 7.78 mg/kg/day (inactive); (rat, strain Sprague-Dawley, males, inhaled, site: any site (literature study), lesion: malignant tumor, dosed 52 weeks, study length 95 weeks) 23.6 mg/kg/day (inactive).
With `C#C[C@]1(OC(C)=O)CC[C@H]2[C@@H]3CCC4=CC(=O)CC[C@@H]4[C@H]3CC[C@@]21C` (tested in a mixture with another compound), the carcinogen call was “negative (inactive)” (monkey, strain Rhesus [Macaca mulatta], females, in feed, site: pancreatic duct, lesion: adenoma, dosed 391 weeks, study length 521 weeks); “negative (inactive)” (mouse, strain C57L/He x 129/Rr x C3HeB/De x SWR/Ly, females, by gavage, site: any site (literature study), lesion: several types, types named in the paper, dosed 69 weeks, study length 69 weeks); “negative (inactive)” (mouse, strain C57L/He x 129/Rr x C3HeB/De x SWR/Ly, females, by gavage, site: any site (literature study), lesion: several types, types named in the paper, dosed 69 weeks, study length 82 weeks); “negative (inactive)” (mouse, strain C57L/He x 129/Rr x C3HeB/De x SWR/Ly, females, by gavage, site: lung, lesion: one or several types, types not named, dosed 69 weeks, study length 69 weeks). The TD50 is, setting by setting: (monkey, strain Rhesus [Macaca mulatta], females, in feed, site: skin, lesion: papilloma, dosed 391 weeks, study length 521 weeks) 10.1 mg/kg/day (inactive); (monkey, strain Rhesus [Macaca mulatta], females, in feed, site: uterus, lesion: leiomyoma, dosed 391 weeks, study length 521 weeks) 6.42 mg/kg/day (inactive); (mouse, strain C57L, females, by gavage, site: pituitary gland, lesion: one or several types, types not named, dosed 89 weeks, study length 89 weeks) 1.34 mg/kg/day; (rat, strain Sprague-Dawley albino, both sexes, in feed, site: any site (literature study), lesion: several types, types named in the paper, dosed 104 weeks, study length 104 weeks) 14.2 mg/kg/day; (rat, strain Sprague-Dawley albino, both sexes, in feed, site: liver, lesion: hepatocellular adenoma, dosed 104 weeks, study length 104 weeks) 7.59 mg/kg/day; (rat, strain Sprague-Dawley albino, both sexes, in feed, site: liver, lesion: hyperplastic nodule, dosed 104 weeks, study length 104 weeks) 1.94 mg/kg/day. Also, the TD50 is 76.8 mg/kg/day (rat, strain Sprague-Dawley albino, both sexes, in feed, site: mammary gland, lesion: adenocarcinoma, dosed 104 weeks, study length 104 weeks); 14.8 mg/kg/day (rat, strain Sprague-Dawley albino, both sexes, in feed, site: mammary gland, lesion: adenoma, dosed 104 weeks, study length 104 weeks); 21 mg/kg/day (rat, strain Sprague-Dawley albino, both sexes, in feed, site: mammary gland, lesion: fibroepithelial tumor, dosed 104 weeks, study length 104 weeks); 6.66 mg/kg/day (rat, strain Sprague-Dawley albino, both sexes, in feed, site: mammary gland, lesion: several types, types named in the paper, dosed 104 weeks, study length 104 weeks); 5.31 mg/kg/day (rat, strain Sprague-Dawley albino, both sexes, in feed, site: pituitary gland, lesion: chromophobe adenoma, dosed 104 weeks, study length 104 weeks); 27.4 mg/kg/day (rat, strain Sprague-Dawley albino, both sexes, in feed, site: uterus, lesion: adenomatous endometrial polyp, dosed 104 weeks, study length 104 weeks).
With `CC(C)(C)NC[C@H](O)COc1cccc2c1CCCC2=O`, the TD50 stood at 5010 mg/kg/day (mouse, strain CF-1, females, in feed, site: liver, lesion: hepatoma, dosed 78 weeks, study length 78 weeks); 2500 mg/kg/day (mouse, strain CF-1, females, in feed, site: lung, lesion: alveogenic adenocarcinoma, dosed 78 weeks, study length 78 weeks); 1220 mg/kg/day (mouse, strain CF-1, females, in feed, site: uterus, lesion: leiomyoma, dosed 78 weeks, study length 78 weeks); 2360 mg/kg/day (rat, strain Wistar albino, females, in feed, site: liver, lesion: hepatoma, benign, dosed 104 weeks, study length 104 weeks); 71 mg/kg/day (rat, strain Wistar albino, females, in feed, site: mammary gland, lesion: fibroadenoma, dosed 104 weeks, study length 104 weeks); 982 mg/kg/day (rat, strain Wistar albino, males, in feed, site: liver, lesion: hepatoma, benign, dosed 104 weeks, study length 104 weeks). This compound registered a TD50 (rat, strain Wistar albino, males, in feed, site: pituitary gland, lesion: adenoma, dosed 104 weeks, study length 104 weeks) of 71.9 mg/kg/day.
